Numbered stars: 1 amine (or outer) side, 2 acyl side, 3 side chain; on linkers, the order of the positions; unused ones are H or OH. Bridge positions count the residues as written; N and C are the ends. Square brackets hold non-standard residues; d marks the D form. Side chains are listed from the residue outwards. Peptide text beside a SMILES is read from it. * marks the point of attachment. ξ: configuration not given here. Pro(4S-NHCO(5-Cl-2-thienyl)) = O=C(N[C@@H]1CN[C@H](C(=O)O)C1)c1ccc(Cl)s1; ξPro(4ξ-NHCOC6H4-4-Cl) = O=C(NC1CNC(C(=O)O)C1)c1ccc(Cl)cc1; Propanoyl(3-(4-Cl-Ph)) = O=C(CCc1ccc(Cl)cc1)*; Pyrazinoyl(5-oxo-4H) = O=C(c1c[nH]c(=O)cn1)*; ξNaproxenoyl = COc1ccc2cc(C(C)C(=O)*)ccc2c1; Benzoyl(3,5-F2) = O=C(c1cc(F)cc(F)c1)*; 2Thenoyl(5-Cl) = O=C(c1ccc(Cl)s1)*; X5 = O=C(c1cc2cc(Cl)ccc2[nH]1)*; Cysteamide = C(CS[*:3])N[*:1]; MeOSuc = COC(=O)CCC(=O)*; X17 = O=C(c1ccc(Br)o1)*; Dap = NC[CH](N)C(=O)O; Mpa = O=C(O)CCS
Target: MDM2 (Homo sapiens, UniProt Q00987)
Sequence (Q00987 whole entry): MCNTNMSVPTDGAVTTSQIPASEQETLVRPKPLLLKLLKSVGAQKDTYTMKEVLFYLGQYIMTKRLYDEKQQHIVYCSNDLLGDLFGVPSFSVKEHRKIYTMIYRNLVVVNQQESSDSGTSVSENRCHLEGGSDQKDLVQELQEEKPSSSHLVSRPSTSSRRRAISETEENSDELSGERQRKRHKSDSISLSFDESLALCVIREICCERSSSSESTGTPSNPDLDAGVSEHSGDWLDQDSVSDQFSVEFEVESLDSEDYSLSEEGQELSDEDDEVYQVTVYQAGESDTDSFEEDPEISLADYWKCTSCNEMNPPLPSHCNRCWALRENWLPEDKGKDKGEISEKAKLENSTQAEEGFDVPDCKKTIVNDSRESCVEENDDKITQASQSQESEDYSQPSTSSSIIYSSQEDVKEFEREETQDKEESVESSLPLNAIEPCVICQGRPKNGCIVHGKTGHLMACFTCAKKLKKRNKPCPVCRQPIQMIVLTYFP
Experiment: MDM2 binding screen: displacement of fluorescent p53 peptide probe FP53 (fluorescence polarization)
Conditions: for fraction fluorescent probe displaced: 10 µM macrocycle concentration, crude acylated macrocycle (scaffold Mpa-AA1-AA2-AA3 x carboxylic acid), p53-based fluorescent peptide, human MDM2; for fraction fluorescent probe displaced, Screen: initial screen; for fraction fluorescent probe displaced, Screen / fraction fluorescent probe displaced, Replicate: crude macrocycle reactions
Method: We screened Library 2 in 384-microwell plates by dispensing the target protein MDM2 and reporter peptide into the wells containing the macrocycle reactions.
The products were screened for displacement of a p53-based fluorescent peptide from human MDM2. Final macrocycle concentrations were 10 µM. For each macrocycle, the MDM2 binding was measured once.
One fluorescence anisotropy reading was taken with a Tecan Infinite F200 Pro fluorescence plate reader (excitation at 485 nm, emission at 535 nm) at 25 °C. Data was collected and exported using the Tecan Infinite M200 Pro instrument software. The data was analyzed by Excel (version 2016).

SMILES: O=C(NC[C@@H]1NC(=O)[C@@H]2CCCN2C(=O)CCSSCCNC(=O)[C@H](Cc2c[nH]c3ccccc23)NC1=O)c1ccc(Br)o1 [X-B1-D3-W + A21] ([Mpa]P[Dap](X17)W-Cysteamide; disulfide 1-C)
- fraction fluorescent probe displaced: 0.2551

SMILES: O=C(NC[C@@H]1NC(=O)[C@H](Cc2ccccc2)NC(=O)[C@H]2CCCN(C2)C(=O)CCSSCCNC1=O)c1ccc(Cl)s1 [X B4 F D3 Acid 14]
- fraction fluorescent probe displaced, Screen (Acid 14): 0.08
- fraction fluorescent probe displaced, Replicate (Acid 14): 0.10

SMILES: O=C1CCSSCCNC(=O)C2CCCN(C2)C(=O)C2CN(C(=O)c3ccc(Cl)s3)CCN2C(=O)C(Cc2ccccc2)N1 (centres unmarked) [X F D7 B4 Acid 14]
- fraction fluorescent probe displaced, Screen (Acid 14): -0.00483
- fraction fluorescent probe displaced, Replicate (Acid 14): 0.12

SMILES: O=C1CCSSCCNC(=O)C2(CCN(C(=O)c3ccc(Cl)s3)CC2)NC(=O)CCNC(=O)[C@H](Cc2c[nH]c3ccccc23)N1 [X W B2 D6 Acid 14]
- fraction fluorescent probe displaced, Screen (Acid 14): 0.20
- fraction fluorescent probe displaced, Replicate (Acid 14): -0.00432

SMILES: O=C(NC[C@@H]1NC(=O)[C@H](Cc2c[nH]c3ccccc23)NC(=O)[C@H]2CCCN(C2)C(=O)CCSSCCNC1=O)c1ccc(Cl)s1 [X B4 W D3 Acid 14]
- fraction fluorescent probe displaced, Screen (Acid 14): 0.11
- fraction fluorescent probe displaced, Replicate (Acid 14): 0.10

SMILES: O=C1CCSSCCNC(=O)[C@H](Cc2c[nH]c3ccccc23)NC(=O)CCNC(=O)[C@H](CNC(=O)c2ccc(Cl)cc2)N1 [X D3 B2 W Acid 25]
- fraction fluorescent probe displaced, Screen (Acid 25): 0.12
- fraction fluorescent probe displaced, Replicate (Acid 25): 0.0465

SMILES: O=C1NC(Cc2c[nH]c3ccccc23)C(=O)N2CCN(C(=O)c3ccc(Cl)s3)CC2C(=O)NCCSSCCC(=O)N2CCCC1C2 (centres unmarked) [X B4 W D7 Acid 14]
- fraction fluorescent probe displaced, Screen (Acid 14): 0.14
- fraction fluorescent probe displaced, Replicate (Acid 14): 0.25

SMILES: O=C(/C=C/c1ccccc1)N[C@H]1C[C@H]2C(=O)N[C@@H](Cc3c[nH]c4ccccc34)C(=O)NCCC(=O)NCCSSCCC(=O)N2C1 [X D5 W B2 Acid 91]
- fraction fluorescent probe displaced, Screen (Acid 91): 0.00268
- fraction fluorescent probe displaced, Replicate (Acid 91): -0.0333

SMILES: O=C(CCc1ccc(Cl)cc1)NC[C@@H]1NC(=O)[C@@H]2CCCN2C(=O)CCSSCCNC(=O)[C@H](Cc2c[nH]c3ccccc23)NC1=O [X-B1-D3-W + A42] ([Mpa]P[Dap](Propanoyl(3-(4-Cl-Ph)))W-Cysteamide; disulfide 1-C)
- fraction fluorescent probe displaced: 0.05096

SMILES: O=C(NC1CC2C(=O)N3CCCC3C(=O)NC(Cc3ccccc3)C(=O)NCCSSCCC(=O)N2C1)c1ccc(Cl)cc1 (centres unmarked) [X D5 B1 F Acid 25] ([Mpa][ξPro(4ξ-NHCOC6H4-4-Cl)]PF-Cysteamide; disulfide 1-C; configuration not given here)
- fraction fluorescent probe displaced, Screen (Acid 25): -0.07
- fraction fluorescent probe displaced, Replicate (Acid 25): 0.12

SMILES: O=C1CCSSCCNC(=O)[C@H](Cc2c[nH]c3ccccc23)NC(=O)c2cccc(c2)CNC(=O)[C@H](CNC(=O)c2ccc(Cl)s2)N1 [X D3 B5 W Acid 14]
- fraction fluorescent probe displaced, Screen (Acid 14): 0.14
- fraction fluorescent probe displaced, Replicate (Acid 14): 0.20

SMILES: CC(=O)NCC(=O)NC[C@@H]1NC(=O)[C@@H]2CCCN2C(=O)CCSSCCNC(=O)[C@H](Cc2c[nH]c3ccccc23)NC1=O [X-B1-D3-W + A83] ([Mpa]P[Dap]([Gly-Ac])W-Cysteamide; disulfide 1-C)
- fraction fluorescent probe displaced: 0.1654

SMILES: O=C1CCNC(=O)C(CNC(=O)c2ccc(Cl)s2)NC(=O)C(Cc2ccccc2)NC(=O)CCSSCCN1 (centres unmarked) [X F D3 B2 Acid 14]
- fraction fluorescent probe displaced, Screen (Acid 14): 0.053
- fraction fluorescent probe displaced, Replicate (Acid 14): 0.0465

SMILES: O=C(NC[C@@H]1NC(=O)[C@@H]2CCCN2C(=O)CCSSCCNC(=O)[C@H](Cc2c[nH]c3ccccc23)NC1=O)c1cc2cc(Cl)ccc2[nH]1 [X-B1-D3-W + A39] ([Mpa]P[Dap](X5)W-Cysteamide; disulfide 1-C)
- fraction fluorescent probe displaced: 0.06212

SMILES: O=C1CCSSCCNC(=O)c2cccc(c2)CNC(=O)C(Cc2c[nH]c3ccccc23)NC(=O)C2(CCN(C(=O)c3ccc(Cl)s3)CC2)N1 (centres unmarked) [X D6 W B5 Acid 14]
- fraction fluorescent probe displaced, Screen (Acid 14): 0.11
- fraction fluorescent probe displaced, Replicate (Acid 14): 0.25

SMILES: O=C(C=Cc1ccccc1)NC1CC2C(=O)NCc3cccc(c3)C(=O)NCCSSCCC(=O)NC(Cc3ccccc3)C(=O)N2C1 (centres unmarked) [X F D5 B5 Acid 91]
- fraction fluorescent probe displaced, Screen (Acid 91): -0.05
- fraction fluorescent probe displaced, Replicate (Acid 91): -0.0333

SMILES: O=C1CCSSCCNC(=O)[C@H](Cc2ccccc2)NC(=O)c2cccc(c2)CNC(=O)C2(CCN(C(=O)/C=C/c3ccccc3)CC2)N1 [X D6 B5 F Acid 91]
- fraction fluorescent probe displaced, Screen (Acid 91): -0.05
- fraction fluorescent probe displaced, Replicate (Acid 91): -0.0333

SMILES: O=C1CCSSCCNC(=O)[C@H](Cc2c[nH]c3ccccc23)NC(=O)c2cccc(c2)CNC(=O)[C@H](CNC(=O)c2ccc(Cl)cc2)N1 [X D3 B5 W Acid 25]
- fraction fluorescent probe displaced, Screen (Acid 25): 0.25
- fraction fluorescent probe displaced, Replicate (Acid 25): 0.10

SMILES: O=C1CCNC(=O)[C@H](Cc2ccccc2)NC(=O)[C@H](CNC(=O)c2ccc(Cl)s2)NC(=O)CCSSCCN1 [X D3 F B2 Acid 14]
- fraction fluorescent probe displaced, Screen (Acid 14): 0.053
- fraction fluorescent probe displaced, Replicate (Acid 14): 0.10

SMILES: O=C1CCNC(=O)[C@H](Cc2c[nH]c3ccccc23)NC(=O)[C@H](CNC(=O)c2ccc(Cl)cc2)NC(=O)CCSSCCN1 [X D3 W B2 Acid 25]
- fraction fluorescent probe displaced, Screen (Acid 25): 0.15
- fraction fluorescent probe displaced, Replicate (Acid 25): 0.20

SMILES: O=C(NC[C@@H]1NC(=O)[C@@H]2CCCN2C(=O)CCSSCCNC(=O)[C@H](Cc2ccccc2)NC1=O)c1c[nH]c(=O)cn1 [X-B1-D3-F + A9] ([Mpa]P[Dap](Pyrazinoyl(5-oxo-4H))F-Cysteamide; disulfide 1-C)
- fraction fluorescent probe displaced: -0.0026

SMILES: O=C(N[C@H]1C[C@H]2C(=O)N[C@@H](Cc3c[nH]c4ccccc34)C(=O)N3CCC[C@H]3C(=O)NCCSSCCC(=O)N2C1)c1ccc(Cl)s1 [X D5 W B1 Acid 14] ([Mpa][Pro(4S-NHCO(5-Cl-2-thienyl))]WP-Cysteamide; disulfide 1-C)
- fraction fluorescent probe displaced, Screen (Acid 14): 0.23
- fraction fluorescent probe displaced, Replicate (Acid 14): 0.10

SMILES: O=C1CCSSCCNC(=O)[C@H](CNC(=O)c2ccc(Cl)s2)NC(=O)[C@@H]2CCCN2C(=O)[C@H](Cc2c[nH]c3ccccc23)N1 [X W B1 D3 Acid 14] ([Mpa]WP[Dap](2Thenoyl(5-Cl))-Cysteamide; disulfide 1-C)
- fraction fluorescent probe displaced, Screen (Acid 14): 0.14
- fraction fluorescent probe displaced, Replicate (Acid 14): 0.22

SMILES: O=C(/C=C/c1ccccc1)NC[C@@H]1NC(=O)CCSSCCNC(=O)[C@H](Cc2ccccc2)NC(=O)c2cccc(c2)CNC1=O [X D3 B5 F Acid 91]
- fraction fluorescent probe displaced, Screen (Acid 91): -0.18
- fraction fluorescent probe displaced, Replicate (Acid 91): -0.0333

SMILES: O=C1CCNC(=O)C2CN(C(=O)c3ccc(Cl)cc3)CCN2C(=O)CCSSCCNC(=O)C(Cc2ccccc2)N1 (mixture of isomers) [X D7 B2 F Acid 25]
- fraction fluorescent probe displaced, Screen (Acid 25): -0.04
- fraction fluorescent probe displaced, Replicate (Acid 25): 0.07

SMILES: COC(=O)CCC(=O)NC[C@@H]1NC(=O)[C@@H]2CCCN2C(=O)CCSSCCNC(=O)[C@H](Cc2ccccc2)NC1=O [X-B1-D3-F + A93] ([Mpa]P[Dap](MeOSuc)F-Cysteamide; disulfide 1-C)
- fraction fluorescent probe displaced: 0.05512

SMILES: COc1ccc2cc(C(C)C(=O)NCC3NC(=O)C4CCCN4C(=O)CCSSCCNC(=O)C(Cc4c[nH]c5ccccc45)NC3=O)ccc2c1 (centres unmarked) [X-B1-D3-W + A97] ([Mpa]P[Dap](ξNaproxenoyl)W-Cysteamide; disulfide 1-C; configuration not given here)
- fraction fluorescent probe displaced: 0.005277

SMILES: O=C(NC[C@@H]1NC(=O)[C@@H]2CCCN2C(=O)CCSSCCNC(=O)[C@H](Cc2ccccc2)NC1=O)c1cc(F)cc(F)c1 [X-B1-D3-F + A23] ([Mpa]P[Dap](Benzoyl(3,5-F2))F-Cysteamide; disulfide 1-C)
- fraction fluorescent probe displaced: 0.02873

SMILES: O=C(NC1CC2C(=O)NCCSSCCC(=O)N3CCCC3C(=O)NC(Cc3c[nH]c4ccccc34)C(=O)N2C1)c1ccc(Cl)cc1 (centres unmarked) [X B1 W D5 Acid 25] ([Mpa]PW[ξPro(4ξ-NHCOC6H4-4-Cl)]-Cysteamide; disulfide 1-C; configuration not given here)
- fraction fluorescent probe displaced, Screen (Acid 25): 0.15
- fraction fluorescent probe displaced, Replicate (Acid 25): 0.20

SMILES: O=C1CCSSCCNC(=O)C2CN(C(=O)c3ccc(Cl)cc3)CCN2C(=O)CCNC(=O)[C@H](Cc2ccccc2)N1 (some centres unmarked) [X F B2 D7 Acid 25]
- fraction fluorescent probe displaced, Screen (Acid 25): 0.12
- fraction fluorescent probe displaced, Replicate (Acid 25): 0.10

SMILES: O=C1CCSSCCNC(=O)C2CCCN2C(=O)C2CN(C(=O)C=Cc3ccccc3)CCN2C(=O)C(Cc2ccccc2)N1 (mixture of isomers) [X F D7 B1 Acid 91]
- fraction fluorescent probe displaced, Screen (Acid 91): -0.0241
- fraction fluorescent probe displaced, Replicate (Acid 91): -0.06

SMILES: O=C1CCSSCCNC(=O)[C@H](Cc2c[nH]c3ccccc23)NC(=O)[C@H]2CCCN(C2)C(=O)[C@H](CNC(=O)c2ccc(Cl)s2)N1 [X D3 B4 W Acid 14]
- fraction fluorescent probe displaced, Screen (Acid 14): 0.08
- fraction fluorescent probe displaced, Replicate (Acid 14): 0.12
